From patent US20030166653A1, “Novel form of (r)-n-[5-methyl-8-(4-methylpiperazin-1-yl)-1,2,3,4-tetrahydro-2-naphthyl]-4-morpholinobenzamide” (priority 2003, published 2003)

Assays:
Type in all cases: physicochemical
[1] = Stability of solution in 0.1 mM HCl, pH 4.1, HPLC assay
Source text: (§1) The stability of [5-Methyl-8-(4-methylpiperazin-1-yl)-1,2,3,4-tetrahydro-2-naphtyl]-4-morpholinobenzamide(=“Base” in tables below) and (R)-N-[5-methyl-8-(4-methylpiperazin-1-yl)-1,2,3,4-tetrahydro-2-naphtyl]-4-morpholinobenzamide monohydrobromide Form A (=“Form A” in tables below), as bulk drug substance and in solutions at different pH levels after exposure to daylight and at elevated temperatures, has been studied. Three solutions were made from each batch of drug substance. One solution in pure water, one in 0.1 mM HCl (pH 4.1) and one in 0.1 M HCl (pH 1.1). The content of [5-Methyl-8-(4-methylpiperazin-1-yl)-1,2,3,4-tetrahydro-2-naphtyl]-4-morpholinobenzamide (=Base) was determined by HPLC, all results are calculated as the base.

[2] = Water sorption by dynamic vapour sorption (DVS)
[3] = Stability in water solutions (pH not adjusted), HPLC assay
Source text: as §1

[4] = Stability of solution in 0.1 M HCl, pH 1.1, HPLC assay
Source text: as §1

[5] = Stability of bulk drug substance (HPLC purity) in daylight and at 90° C.; settings: for HPLC Purity (100% - related substances): bulk
Protocol: The stability of [5-Methyl-8-(4-methylpiperazin-1-yl)-1,2,3,4-tetrahydro-2-naphtyl]-4-morpholinobenzamide(=“Base” in tables below) and (R)-N-[5-methyl-8-(4-methylpiperazin-1-yl)-1,2,3,4-tetrahydro-2-naphtyl]-4-morpholinobenzamide monohydrobromide Form A (=“Form A” in tables below), as bulk drug substance and in solutions at different pH levels after exposure to daylight and at elevated temperatures, has been studied. The bulk substances are very stable, both in daylight and at 90° C. There are no significant differences between the HPLC purity of [5-Methyl-8-(4-methylpiperazin-1-yl)-1,2,3,4-tetrahydro-2-naphtyl]-4-morpholinobenzamide (=Base) and (R)-N-[5-methyl-8-(4-methylpiperazin-1-yl)-1,2,3,4-tetrahydro-2-naphtyl]-4-morpholinobenzamide monohydrobromide Form A (=Form A) at the tested conditions.

[6] = Solubility in water by HPLC-analysis
[7] = daylight RT, 14 days, % of start
[8] = daylight RT, 23 days, % of start

SMILES: Br.Cc1ccc(N2CCN(C)CC2)c2c1CC[C@@H](NC(=O)c1ccc(N3CCOCC3)cc1)C2 [Form A, (R)-N-[5-methyl-8-(4-methylpiperazin-1-yl)-1,2,3,4-tetrahydro-2-naphtyl]-4-morpholinobenzamide monohydrobromide]
- Solution in 0.1 mM HCl, pH 4.1, assay ([1]; 5° C., 8 days, % of start): 100%
- Solution in 0.1 mM HCl, pH 4.1, assay ([1]; 5° C., 14 days, % of start): 100%
- Solution in 0.1 mM HCl, pH 4.1, assay ([1]; 5° C., 23 days, % of start): 100%
- Solution in 0.1 mM HCl, pH 4.1, assay ([1]; 5° C., Start): 0.0490 mg base/ml
- Solution in 0.1 mM HCl, pH 4.1, assay ([1]; 5° C., Start, % of start): (100%)
- Solution in 0.1 mM HCl, pH 4.1, assay ([1]; 60° C., 2 days, % of start): 97%
- Solution in 0.1 mM HCl, pH 4.1, assay ([1]; 60° C., 8 days, % of start): 93%
- Solution in 0.1 mM HCl, pH 4.1, assay ([1]; 60° C., 14 days, % of start): 90%
- Solution in 0.1 mM HCl, pH 4.1, assay ([1]; 60° C., 23 days, % of start): 81%
- Solution in 0.1 mM HCl, pH 4.1, assay ([1]; 60° C., Start): 0.0490 mg base/ml
- Solution in 0.1 mM HCl, pH 4.1, assay ([1]; 60° C., Start, % of start): (100%)
- Solution in 0.1 mM HCl, pH 4.1, assay ([1]; Dark RT, 8 days, % of start): 99%
- Solution in 0.1 mM HCl, pH 4.1, assay ([1]; Dark RT, 14 days, % of start): 99%
- Solution in 0.1 mM HCl, pH 4.1, assay ([1]; Dark RT, 23 days, % of start): 98%
- Solution in 0.1 mM HCl, pH 4.1, assay ([1]; Dark RT, Start): 0.0490 mg base/ml
- Solution in 0.1 mM HCl, pH 4.1, assay ([1]; Dark RT, Start, % of start): (100%)
- Solution in 0.1 mM HCl, pH 4.1, assay [1, 7]: 99%
- Solution in 0.1 mM HCl, pH 4.1, assay [1, 8]: 97%
- Solution in 0.1 mM HCl, pH 4.1, assay ([1]; daylight RT, Start): 0.0490 mg base/ml
- Solution in 0.1 mM HCl, pH 4.1, assay ([1]; daylight RT, Start, % of start): (100%)
- stability in solution in words ([1]; pH 4.1, except at 60° C.): good
- water sorbed as measured by dynamic vapour sorption (DVS) ([2]; 80% RH and 25° C.): 0,8%
- hygroscopicity / water uptake in words ([2]; solid state characterization, monohydrobromide): non-hygroscopic
- Stability in water solutions, assay ([3]; 5° C., 8 days, % of start): 101%
- Stability in water solutions, assay ([3]; 5° C., 14 days, % of start): 100%
- Stability in water solutions, assay ([3]; 5° C., 23 days, % of start): 99%
- Stability in water solutions, assay ([3]; 5° C., Start): 0.0248 mg base/ml
- Stability in water solutions, assay ([3]; 5° C., Start, % of start): (100%)
- Stability in water solutions, assay ([3]; 60° C., 2 days, % of start): 84%
- Stability in water solutions, assay ([3]; 60° C., 8 days, % of start): 81%
- Stability in water solutions, assay ([3]; 60° C., 14 days, % of start): 76%
- Stability in water solutions, assay ([3]; 60° C., 23 days, % of start): 82%
- Stability in water solutions, assay ([3]; 60° C., Start): 0.0248 mg base/ml
- Stability in water solutions, assay ([3]; 60° C., Start, % of start): (100%)
- stability in pure water solution, comparison in words ([3]; 60° C., pH not adjusted): less stable than the Base
- Stability in water solutions, assay ([3]; Dark RT, 8 days, % of start): 99%
- Stability in water solutions, assay ([3]; Dark RT, 14 days, % of start): 99%
- Stability in water solutions, assay ([3]; Dark RT, 23 days, % of start): 97%
- Stability in water solutions, assay ([3]; Dark RT, Start): 0.0248 mg base/ml
- Stability in water solutions, assay ([3]; Dark RT, Start, % of start): (100%)
- Stability in water solutions, assay ([3]; daylight RT, 8 days, % of start): 100%
- Stability in water solutions, assay [3, 7]: 101%
- Stability in water solutions, assay [3, 8]: 100%
- Stability in water solutions, assay ([3]; daylight RT, Start): 0.0248 mg base/ml
- Stability in water solutions, assay ([3]; daylight RT, Start, % of start): (100%)
- Solution in 0.1 M HCl, pH 1.1, assay ([4]; 5° C., 8 days, % of start): 100%
- Solution in 0.1 M HCl, pH 1.1, assay ([4]; 5° C., 14 days, % of start): 100%
- Solution in 0.1 M HCl, pH 1.1, assay ([4]; 5° C., 23 days, % of start): 98%
- Solution in 0.1 M HCl, pH 1.1, assay ([4]; 5° C., Start): 0.504 mg base/ml
- Solution in 0.1 M HCl, pH 1.1, assay ([4]; 5° C., Start, % of start): (100%)
- Solution in 0.1 M HCl, pH 1.1, assay ([4]; 60° C., 2 days, % of start): 100%
- Solution in 0.1 M HCl, pH 1.1, assay ([4]; 60° C., 8 days, % of start): 97%
- Solution in 0.1 M HCl, pH 1.1, assay ([4]; 60° C., 14 days, % of start): 95%
- Solution in 0.1 M HCl, pH 1.1, assay ([4]; 60° C., 23 days, % of start): 88%
- Solution in 0.1 M HCl, pH 1.1, assay ([4]; 60° C., Start): 0.504 mg base/ml
- Solution in 0.1 M HCl, pH 1.1, assay ([4]; 60° C., Start, % of start): (100%)
- Solution in 0.1 M HCl, pH 1.1, assay ([4]; Dark RT, 8 days, % of start): 101%
- Solution in 0.1 M HCl, pH 1.1, assay ([4]; Dark RT, 14 days, % of start): 99%
- Solution in 0.1 M HCl, pH 1.1, assay ([4]; Dark RT, 23 days, % of start): 98%
- Solution in 0.1 M HCl, pH 1.1, assay ([4]; Dark RT, Start): 0.504 mg base/ml
- Solution in 0.1 M HCl, pH 1.1, assay ([4]; Dark RT, Start, % of start): (100%)
- Solution in 0.1 M HCl, pH 1.1, assay [4, 7]: 100%
- Solution in 0.1 M HCl, pH 1.1, assay [4, 8]: 98%
- Solution in 0.1 M HCl, pH 1.1, assay ([4]; daylight RT, Start): 0.504 mg base/ml
- Solution in 0.1 M HCl, pH 1.1, assay ([4]; daylight RT, Start, % of start): (100%)
- stability in solution in words ([4]; pH 1.1, except at 60° C.): good
- HPLC Purity (100% - related substances) ([5]; 90° C., 2 days): 99.6%
- HPLC Purity (100% - related substances) ([5]; 90° C., 8 days): 99.6%
- HPLC Purity (100% - related substances) ([5]; 90° C., 14 days): 99.5%
- HPLC Purity (100% - related substances) ([5]; 90° C., 21 days): 99.6%
- HPLC Purity (100% - related substances) ([5]; 90° C., 30 days): 99.4%
- HPLC Purity (100% - related substances) ([5]; 90° C., Start): 99.7%
- HPLC Purity (100% - related substances) ([5]; daylight, RT, 8 days): 99.6%
- HPLC Purity (100% - related substances) ([5]; daylight, RT, 14 days): 99.5%
- HPLC Purity (100% - related substances) ([5]; daylight, RT, 21 days): 99.5%
- HPLC Purity (100% - related substances) ([5]; daylight, RT, 30 days): 99.5%
- HPLC Purity (100% - related substances) ([5]; daylight, RT, Start): 99.7%
- stability of bulk substance in words ([5]; in daylight and at 90° C.): very stable
- solubility in water in words [6]: satisfactory
- solubility in water ([6]; as the free base by HPLC-analysis): 6400 µg/mL
